Measurements reported in US4869895A, “Radiolabeled benzazepine” (Hoffmann-La Roche Inc., priority 1988, dated 1989).

Legend:
[1] = biological target: benzodiazepine (BZ) receptor; test: in vitro displacement: prevention of the binding of the compound of formula I; parameters: species or system rat (male, Sprague-Dawley); settings: rat cerebral cortical tissue; given in words only
[2] = test system: BZ receptors in the brain; test: in vivo binding of the compound of formula I in mouse cerebral cortex; parameters: species or system mouse (male, ICR); settings: mice, tail vein injection
Experimental: In vivo binding of the compound of formula I was determined according to the following procedures. Mice (male, 30 g ICR, Hilltop Farms) were injected via the tail vein with the compound of formula I. Ten or 30 minutes later, the mice were killed, the cerebral cortices of the brains were dissected solubilized, and the radioactivity was determined using standard methods. In order to determine nonspecific binding, some mice were pretreated with 5 mg/kg clonazepam (30 min ip). Specific/nonspecific binding ratios in cerebral cortex were about 2 at 10 minutes. The tissues in these tests were assayed directly without first homogenizing and washing them to reduce nonspecific binding. Therefore, the ratios were true in vivo ratios. Radioactivity was low and specific binding was negligible at 30 minutes.

[3] = test system: benzodiazepine (BZ) receptor; test: in vitro benzodiazepine receptor binding of the compound of formula I (saturation, rat cerebral cortical tissue); parameters: species or system rat (male, Sprague-Dawley); settings: for Bmax / Kd: 60 min incubation, pH 7.7; for Ratio (Specific/nonspecific): concentration of the compound of formula I at Kd, nonspecific with 10^-6 M clonazepam

SMILES: CCOC(=O)c1ncn2c1CN(C)C(=O)c1cc(F)ccc1-2 [Ethyl-8-fluoro-5,6-dehydro-5-methyl-6-oxo-4H-imidazol-[1,5-a]-1,4[benzodiazepine-3-carboxylate]]
- Ki, prevention of binding of the compound of formula I [1]: in the nM range

SMILES: O=C1CN=C(c2ccccc2Cl)c2cc([N+](=O)[O-])ccc2N1 [clonazepam]
- Ki, prevention of binding of the compound of formula I [1]: in the nM range

SMILES: [3H]c1cc(Cl)cc2c1C1=C(CN=C2c2ccccc2Cl)C(=O)NC1 [compound of formula I, 8-Chloro-6-(2-chlorophenyl)-1,4-dihydropyrrolo-[3,4-d][2]-10-t-benzazepin-3(2H)-one]
- Specific/nonspecific binding ratio in cerebral cortex ([2]; 10 minutes, nonspecific: 5 mg/kg clonazepam (30 min ip), tissue not homogenized or washed): about 2
- Radioactivity in cerebral cortex ([2]; 30 minutes): low
- specific binding in cerebral cortex ([2]; 30 minutes): negligible
- Bmax ([3]; 0 °C): 1.36 × 10^-10 mol/mg wet weight
- Kd ([3]; 0 °C): 0.18 ± 0.05 nM
- Ratio (Specific/nonspecific) ([3]; 0 °C): 12
- specific to nonspecific ratios (FIG. 1) ([3]; 37 °C, 0.01 to 10 nM, over a relatively large range of concentrations): high
- Bmax ([3]; 37 °C): 1.22 × 10^-10 mol/mg wet weight
- Kd ([3]; 37 °C): 0.82 ± 0.03 nM
- Ratio (Specific/nonspecific) ([3]; 37 °C): 4
- affinity and selectivity for BZ receptors in the brain ([3]; summary statement): high affinity and is a selective ligand for BZ receptors in the brain

SMILES: Cc1ncc2n1-c1ccc(Cl)cc1C(c1ccccc1F)=NC2 [midazolam]
- Ki, prevention of binding of the compound of formula I [1]: in the nM range
